Patent US11046668B2, “Small molecule antimicrobials” (Ohio State Innovation Foundation, priority 2016, dated 2021)
≈ marks a conversion by molar mass, not a printed value. Entries after “also recorded” stand apart in the source; their conditions may differ. Marks after values point to notes of the source that are not given here.

How the values were obtained:
[1] = tested on: Salmonella, E. coli, Listeria and also several commensal and/or probiotic bacteria; assay: Specificity against diverse foodborne pathogens and commensal/probiotic bacteria; format: cell-based; settings: tested for specificity against foodborne pathogens and commensal/probiotic bacteria
[2] = tested on: colon cells (CCD-112CoN, ATCC); assay: Cytotoxicity assay on normal colon cells (sulforhodamine B); format: cell-based, human; settings: for survival rates of colon cells: at 200 μM; for highest concentrations of each compound to cause lysis of human colon cells, converted to ppm: 200 μM converted to ppm; for toxicity against the colon cells: CCD-112CoN, ATCC, data not shown
[3] = tested on: pathogenic E.coli, Listeria strain, C. jejuni and E. coli bacteria; assay: Efficacy of JA-144 when incorporated in edible films (Example 1); format: cell-based
Text: As described in primary HTS, we screened re-synthesized two compounds for C. jejuni 81-176 growth inhibition. Both re-synthesized compounds effective inhibiting Campylobacter growth at tested concentrations. […] Where positive control (P CNTL includes Campylobacter culture with known antibiotics and negative control (N CNTL) include Camylobacter culture alone. See FIG. 13. Testing the efficacy of JA-144 when incorporated in edible films against pathogenic E.coli, Listeria strain, C. jejuni and E. coli bacteria. The control (CNTL) include edible film alone. JA-144 was effective in reducing most of the pathogenic bacteria by 4 log. See FIG. 14. A cytotoxicity assay for potent semi-synthetic derivative compounds were performed using normal colon cells and sulfohodamine B methods. See FIG. 15. A cytotoxicity assay was performed for two re-synthesized compounds using normal colon cells and sulforhodamine B methods.

E. coli K12 [4] = assay: MIC test in 96 well plate with TTC; format: cell-based; settings: for antimicrobial activity: starting concentration 50 ppm
L. innocua [5] = assay: MIC test in 96 well plate with TTC; format: cell-based, Listeria innocua; settings: for antimicrobial activity: starting concentration 50 ppm
C. jejuni [6] = assay: MIC test in 96 well plate with TTC; format: cell-based; settings: Campylobacter jejuni, 42° C. microaerobically, 24 hours
C. coli [7] = assay: MIC test in 96 well plate with TTC; format: cell-based; settings: Campylobacter coli, 42° C. microaerobically, 24 hours
E. coli K12 [8] = assay: Log reduction test in broth; settings: 100 ppm JA-144
Experimental: (§1) After 24 hours incubation, the broth was centrifuged at 4,000 rpm for 5 min at 23° C. with appropriate aseptic precautions. The supernatant was discarded and the pellet resuspended using 1 ml of sterile peptone water and centrifuged again at 4000 rpm for 5 min. This step was repeated until the supernatant was clear. The pellets were then suspended in 1 ml sterile peptone water, and seven consecutive 10-fold dilutions were made to obtain inoculums ready for the plate counts. For the experimental groups with the small molecule compounds, 0.1 ml of diluted broth (dilution of 10^−2; 10^−4; 10^−6) were inoculated on to the plates. For the control groups, 0.1 ml of diluted broth (dilution of 10^−6 and 10^−7) was added to the plates. They were then incubated at 37° C. aerobically (for E. coli and L. innocua), or 42° C. microaerobically (for C. jejuni and C. coli) for 24 hours, and then colony numbers on each plate counted using a Darkfield Colony Counter manufactured by American Optical (Buffalo, N.Y.).

L. innocua [9] = assay: Log reduction test in broth; settings: 100 ppm JA-144
Experimental: as §1

C. jejuni [10] = assay: Log reduction test in broth; settings: JA-144 6.25 ppm, TH-4 25 ppm, TH-8 50 ppm, 24 hours; for Log10 CFU/ml reduction: C. jejuni in broth, vs control; for C. jejuni count after treatment: in broth
Experimental: as §1

C. coli [11] = assay: Log reduction test in broth; settings: JA-144 3.125 ppm, TH-4 12.5 ppm, TH-8 50 ppm, 24 hours; for Log10 CFU/ml reduction: C. coli in broth, vs control; for C. coli count after treatment: in broth
Experimental: as §1

E. coli K12 [12] = assay: Log reduction test in tapioca film
Experimental: (§2) The films prepared above were cut into small pieces that were capable of fitting into 1.5 ml micro-tubes. The weight of each film sample ranged from 5 to 15 mg. The micro-tubes were then exposed to UV light for 18 hours to eliminate possible contamination that may have occurred during the cutting and transferring process. […] After adding the proper amount of bacterial culture, the micro-tubes were placed in an incubator aerobically at 37° C. (for E. coli and L. innocua), or microaerobically at 42° C. (for C. jejuni and C. coli), for 24 hours, respectively.
as §1

L. innocua [13] = assay: Log reduction test in tapioca film
Experimental: as §2, §1

C. jejuni [14] = assay: Log reduction test in tapioca film; settings: for % Efficacy loss due to incorporation / Log10 CFU/ml reduction: C. jejuni; for % Efficacy loss due to incorporation: film vs broth; for Log10 CFU/ml reduction / C. jejuni count after treatment: in tapioca film, JA-144 6.25 ppm, TH-4 25 ppm, TH-8 50 ppm, 24 hours; for Log10 CFU/ml reduction: vs control
Experimental: as §2, §1

C. coli [15] = assay: Log reduction test in tapioca film; settings: for % Efficacy loss due to incorporation / Log10 CFU/ml reduction: C. coli; for % Efficacy loss due to incorporation: film vs broth; for Log10 CFU/ml reduction / C. coli count after treatment: in tapioca film, JA-144 3.125 ppm, TH-4 12.5 ppm, TH-8 50 ppm, 24 hours; for Log10 CFU/ml reduction: vs control
Experimental: as §2, §1

E. coli K12 [16] = assay: Bacterial growth curves (optical density); settings: OD over 24 hours at 37° C.
Experimental: (§3) For E. coli K12 and L. innocua, the bacterial incubations were followed by measurements of the Optical Density (OD) values every 15 minutes in an automated Sunrise™ Tecan Spectrophotometer (Tecan Co.) during an incubation period of 24 hours at 37° C. For C. jejuni, the incubation experimental design was similar, but the measurement period occurred every 4 hours. From the data collected, comparisons were made with the control samples and statistical analyses were used to determine the significance between the means for all observations.

L. innocua [17] = assay: Bacterial growth curves (optical density); settings: OD over 24 hours at 37° C.
Experimental: as §3

C. jejuni [18] = assay: Bacterial growth curves (optical density); settings: OD every 4 hours
Experimental: as §3

C. jejuni colonization = assay: In vivo effect on C. jejuni colonization in broiler chickens; settings: administered orally, in 30% DMSO; three week old broiler chickens
Solubility in water = format: physicochemical
[19] = in tapioca film, 1% w/w JA-144, 24 hours incubation

| Compound | spectrum of antibacterial activity [1] | survival rates of colon cells [2] [%] | highest concentrations of each compound to cause lysis of human colon cells [2] [µM] | highest concentrations of each compound to cause lysis of human colon cells, converted to ppm [2] [ppm] | MIC (C. jejuni [6]) [µg/mL] | MIC (C. coli [7]) [µg/mL] | Log10 CFU/ml reduction (C. jejuni [10]) [Log10 CFU/ml] | C. jejuni count after treatment (C. jejuni [10]) | Log10 CFU/ml reduction (C. coli [11]) [Log10 CFU/ml] | C. coli count after treatment (C. coli [11]) | % Efficacy loss due to incorporation (C. jejuni [14]) [%] | Log10 CFU/ml reduction (C. jejuni [14]) [Log10 CFU/ml] | C. jejuni count after treatment (C. jejuni [14]) | % Efficacy loss due to incorporation (C. coli [15]) [%] | Log10 CFU/ml reduction (C. coli [15]) [Log10 CFU/ml] | C. coli count after treatment (C. coli [15]) | concentration that completely inhibited growth (growth curve) (C. jejuni [18]) [ppm] | toxicity against the colon cells [2] | in vivo results in a chicken model (C. jejuni colonization) | solubility in water (Solubility in water) | further results |
| --- | --- | --- | --- | --- | --- | --- | --- | --- | --- | --- | --- | --- | --- | --- | --- | --- | --- | --- | --- | --- | --- |
| OCC1(Cc2ccccc2)CCCN(Cc2cc3ccccc3[nH]2)C1 (stereo not shown) [JA-144] | broad spectrum effect on other bacteria including E. coli and Listeria | 99 | 200 | 66.9 | 3.12 to 6.25 (≈ 9.34 to 18.7 µM) | 3.12 to 6.25 (≈ 9.34 to 18.7 µM) | 6.35 | 2.90 ± 0.09^a Log10 CFU/ml | 6.27 | 2.93 ± 0.26^a Log10 CFU/ml | 0.25 | 6.36 | 2.86 ± 0.13^a Log10 CFU/ml | 2.03 | 6.14 | 2.93 ± 0.16^a Log10 CFU/ml | 6.25 | – | – | – | reduction of most of the pathogenic bacteria [3]: 4 log; MIC (E. coli K12 [4]; Escherichia coli, 37° C. aerobically, 24 hours): 100 µg/mL (≈ 299 µM); MIC (L. innocua [5]; Listeria innocua, 37° C. aerobically, 24 hours): 50 to 100 µg/mL (≈ 149 to 299 µM); Log10 CFU/ml reduction (E. coli K12 [8]; E. coli K12 in broth, 24 hours, vs control): 5.86 Log10 CFU/ml; E. coli K12 count after treatment (E. coli K12 [8]; in broth, 24 hours incubation): 2.96 ± 0.30^a Log10 CFU/ml; Log10 CFU/ml reduction (L. innocua [9]; L. innocua in broth, 24 hours, vs control): 5.52 Log10 CFU/ml; L. innocua count after treatment (L. innocua [9]; in broth, 24 hours incubation): 3.14 ± 0.11^b Log10 CFU/ml; Percent efficacy loss due to incorporation (E. coli K12 [12]; E. coli K12, film vs broth): 43.48%; Log10 CFU/ml reduction (E. coli K12 [12]; E. coli K12, tapioca film, 1% w/w JA-144, 24 hours, vs control): 3.31 Log10 CFU/ml; E. coli K12 count after treatment (E. coli K12 [12]; [19]): 5.58 ± 0.08^a Log10 CFU/ml; Percent efficacy loss due to incorporation (L. innocua [13]; L. innocua, film vs broth): 36.42%; Log10 CFU/ml reduction (L. innocua [13]; L. innocua, tapioca film, 1% w/w JA-144, 24 hours, vs control): 3.51 Log10 CFU/ml; L. innocua count after treatment (L. innocua [13]; [19]): 5.22 ± 0.07^b Log10 CFU/ml; concentration that completely inhibited growth (growth curve) (E. coli K12 [16]): 100 ppm; concentration that completely inhibited growth (growth curve) (L. innocua [17]): 100 ppm |
| O=S(=O)(NCc1ccc(F)cc1)c1ccc(Cl)s1 [TH-4] | specific to C. jejuni and C. coli | 60 | 200 | 61.1 | 12.5 to 25 (≈ 40.9 to 81.8 µM) | 12.5 to 25 (≈ 40.9 to 81.8 µM) | 6.37 | 2.78 ± 0.09^a Log10 CFU/ml | 6.16 | 3.21 ± 0.12^a Log10 CFU/ml | 6.09 | 5.99 | 3.16 ± 0.14^a Log10 CFU/ml | 29.02 | 4.37 | 5.03 ± 0.07^a Log10 CFU/ml | 25 | lacked toxicity | promising in vivo results | not readiliy soluble in water | antimicrobial activity (E. coli K12 [4]): ineffective; also recorded: no antimicrobialactivity; antimicrobial activity (L. innocua [5]): ineffective; also recorded: no antimicrobialactivity |
| Cc1ccccc1CNS(=O)(=O)c1ccc(Cl)s1 [TH-8] | specific to C. jejuni and C. coli | 79 | 200 | 60.4 | 25 to 50 (≈ 82.8 to 166 µM) | 25 to 50 (≈ 82.8 to 166 µM) | 5.39 | 3.64 ± 0.05^a Log10 CFU/ml | 5.51 | 4.11 ± 0.05^a Log10 CFU/ml | 25.52 | 4.01 | 5.10 ± 0.07^a Log10 CFU/ml | 48.01 | 2.87 | 6.83 ± 0.06^a Log10 CFU/ml | 50 | lacked toxicity | promising in vivo results | not readiliy soluble in water | antimicrobial activity (E. coli K12 [4]): ineffective; also recorded: did not show antimicrobialactivity; antimicrobial activity (L. innocua [5]): ineffective; also recorded: did not show antimicrobialactivity |
